According to US20230295234A1, “ANTIMICROBIAL PEPTIDOMIMETICS” (SPEXIS AG, priority 2020, published 2023):
Like-named read-outs stand apart in the source and are kept apart here. Bridge positions count the residues as written; N and C are the ends. Square brackets hold non-standard residues; d marks the D form. Peptide text beside a SMILES is read from it. * marks the point of attachment. Val(Nα-amidino) = CC(C)[C@H](NC(=N)N)C(=O)*; Pro(4R-NH2) = N[C@H]1CN[C@H](C(=O)O)C1; X2 = N=C(N)N1C[C@H](O)C[C@H]1C(=O)*; Hyp = O=C(O)[C@@H]1C[C@@H](O)CN1; Gly(N(CH2)3NH2) = NCCCNCC(=O)O; Pen = CC(C)(S)[C@H](N)C(=O)O; dDab = NCC[C@@H](N)C(=O)O; Dab = NCC[C@H](N)C(=O)O; Nlys = NCCCCNCC(=O)O

Columns and labels:
[1] = test system: Escherichia coli ATCC 25922; settings: ATCC 25922
Method: (§1) Lyophilized peptides were weighed on a Microbalance (Mettler MT5) and dissolved in sterile water to a final concentration of 1 mg/mL. Stock solutions were kept at +4° C., light protected.
(§2) Colonies of the microorganisms were diluted in saline (0.85%, NaCl) and adjusted using a McFarland reader (bioMérieux SA, Marcy-l'Etoile, France) to 0.5 McFarland standard. Subsequently, the bacterial suspension was diluted in Mueller-Hinton II (MHII, cation adjusted) broth to give approximately 5×10^5 colony forming units (CFU/mL).
(§3) 10^6 colony forming units (CFU)/mL. Aliquots (90 μl) of inoculate were added to 10 μl of water+P-80 (Polysorbate 80, 0.002% final concentration) containing the peptide in serial two-fold dilutions at 10 fold final concentration. The following microorganisms were used to determine antibiotic selectivity of the peptides: Escherichia coli ATCC 25922, Escherichia coli MCR-1 Af 45 and Klebsiella pneumoniae SSI3010.

[2] = test system: Escherichia coli MCR-1 Af 45
Method: as §1, §2, §3

[3] = test system: Klebsiella pneumoniae SSI3010; settings: SSI3010
Method: as §1, §2, §3

[4] = test system: human red blood cells (hRBC); experiment: Hemolysis of human red blood cells; assay type: cell-based; settings: red cells of human, 1 h
Method: Lyophilized peptides were weighed on a Microbalance (Mettler MT5) and dissolved in sterile water to a final concentration of 1 mg/mL. Stock solutions were kept at +4° C., light protected. The peptides were tested for their hemolytic activity against human red blood cells (hRBC). Fresh hRBC were washed three times with phosphate buffered saline (PBS) and centrifuged for 5 min at 3000×g. Compounds (200 μg/mL) were incubated with 20% hRBC (v/v) for 1 h at 37° C. and shaking at 300 rpm. […] The samples were centrifuged, the supernatants were 8-fold diluted in PBS buffer and the optical densities (OD) were measured at 540 nm. […] Percent hemolysis was calculated as follows: (OD540peptide/OD540H2O)×100%.

[5] = Mueller-Hinton broth II, 18-20 hours at 35° C.

| SMILES | Escherichia coli ATCC 25922 MIC [1] [µg/mL] | Klebsiella pneumoniae SSI3010 MIC [3] [µg/mL] | Escherichia coli MCR-1 Af 45 MIC ([2]; MCR-1 Af 45) [µg/mL] | Escherichia coli MCR-1 Af 45 MIC [2, 5] [µg/mL] | Hemolysis at 0.2 g/L [4] [%] |
| --- | --- | --- | --- | --- | --- |
| CC[C@H](C)[C@H](NC(=O)[C@@H](NC(=O)[C@@H]1C[C@@H](N)CN1C(=O)[C@@H](NC(=N)N)C(C)C)[C@@H](C)CC)C(=O)N[C@@H](Cc1ccc(O)cc1)C(=O)N[C@@H]1C(=O)N[C@@H](CC(N)=O)C(=O)N[C@@H](CCCNC(=N)N)C(=O)N[C@@H](CCN)C(=O)N[C@@H]([C@@H](C)O)C(=O)N[C@H](CCN)C(=O)N[C@@H](CCCCN)C(=O)N[C@H](C(=O)N[C@@H](CCN)C(=O)N[C@@H](CCCNC(=N)N)C(=O)N[C@@H](Cc2ccc(O)cc2)C(=O)O)CSSC1(C)C [Example 191] ({Val(Nα-amidino)}-[Pro(4R-NH2)]IIY[Pen]NR[Dab]T[dDab]KC[Dab]RY-OH; disulfide 5-12) | 0.0625 | 0.0625 |  | 0.0625 | 0 |
| CC[C@H](C)[C@H](NC(=O)[C@@H](NC(=O)[C@@H]1CCCN1C(=O)[C@@H](NC(=N)N)C(C)C)[C@@H](C)CC)C(=O)N[C@@H](Cc1ccc(O)cc1)C(=O)N[C@H]1CSSC[C@@H](C(=O)N[C@@H](CCN)C(=O)N[C@@H](CCCNC(=N)N)C(=O)N[C@@H](Cc2ccc(O)cc2)C(=O)O)NC(=O)[C@H](CCCCN)NC(=O)[C@@H](CCN)NC(=O)[C@H]([C@@H](C)O)NC(=O)[C@H](CCN)NC(=O)[C@H](CCCNC(=N)N)NC(=O)[C@H](CC(N)=O)NC1=O [Example 186] (HELM PEPTIDE1{[CC(C)[C@H](NC(=N)N)C(=O)[*:2]].P.I.I.Y.C.N.R.[Dab].T.[NCC[C@@H](N[*:1])C(=O)[*:2]].K.C.[Dab].R.Y}$PEPTIDE1,PEPTIDE1,6:R3-13:R3$$$V2.0) | 0.125 | ≤0.25 |  | 0.125 | 0 |
| CC[C@H](C)[C@H](NC(=O)[C@@H]1C[C@@H](N)CN1C(=O)[C@@H](NC(=O)[C@@H]1C[C@@H](O)CN1C(=N)N)C(C)C)C(=O)N[C@H](C(=O)N[C@@H](Cc1ccc(O)cc1)C(=O)N[C@@H]1C(=O)N[C@@H](CC(N)=O)C(=O)N[C@@H](CCCNC(=N)N)C(=O)N[C@@H](CCN)C(=O)N[C@@H]([C@@H](C)O)C(=O)N[C@H](CCN)C(=O)N[C@@H](CCCCN)C(=O)N[C@H](C(=O)N[C@@H](CCN)C(=O)N[C@@H](CCCNC(=N)N)C(=O)N[C@@H](Cc2ccc(O)cc2)C(=O)O)CSSC1(C)C)[C@@H](C)O [Example 36, Gua-Hyp-Val-Pro((4R)NH2)-Ile-Thr-Tyr-Pen-Asn-Arg-^Dab-Thr-^DDab-Lys-Cys-Dab-Arg-Tyr] (X2-V[Pro(4R-NH2)]ITY[Pen]NR[Dab]T[dDab]KC[Dab]RY-OH; disulfide 6-13) | 0.125 | 0.125 | 0.0625 |  | 0 |
| CC[C@H](C)[C@H](NC(=O)[C@@H]1CCCN1C(=O)[C@@H](NC(=O)[C@@H]1CCCN1C(=O)[C@H](CCCNC(=N)N)NC(=O)[C@@H](N)CCCCN)C(C)C)C(=O)N[C@@H](CCCNC(=N)N)C(=O)N[C@@H](Cc1ccc(O)cc1)C(=O)N[C@@H]1C(=O)N[C@@H](CC(N)=O)C(=O)N[C@@H](CCCNC(=N)N)C(=O)N[C@@H](CCN)C(=O)N[C@@H]([C@@H](C)O)C(=O)N[C@H](CCN)C(=O)N[C@@H](CCCCN)C(=O)N[C@H](C(=O)N[C@@H](CCN)C(=O)N[C@@H](CCCNC(=N)N)C(=O)N[C@@H](Cc2ccc(O)cc2)C(=O)O)CSSC1(C)C [Example 86] (HELM PEPTIDE1{K.R.P.V.P.I.R.Y.[Pen].N.R.[Dab].T.[NCC[C@@H](N[*:1])C(=O)[*:2]].K.C.[Dab].R.Y}$PEPTIDE1,PEPTIDE1,9:R3-16:R3$$$V2.0) | 0.125 | 0.125 | ≤0.03125 |  | 0 |

The next lines start with results.

| Escherichia coli ATCC 25922 MIC [1] [µg/mL] | Klebsiella pneumoniae SSI3010 MIC [3] [µg/mL] | Escherichia coli MCR-1 Af 45 MIC ([2]; MCR-1 Af 45) [µg/mL] | SMILES | Escherichia coli MCR-1 Af 45 MIC [2, 5] [µg/mL] | Hemolysis at 0.2 g/L [4] [%] |
| --- | --- | --- | --- | --- | --- |
| 0.125 | 0.125 |  | CCCC[C@H](NC(=O)[C@H](CCCNC(=N)N)NC(=O)[C@H](CCN)NC(=O)[C@@H]1CSSC[C@H](NC(=O)[C@H](Cc2ccc(O)cc2)NC(=O)[C@@H](NC(=O)[C@@H](NC(=O)[C@@H]2C[C@@H](O)CN2C(=O)[C@@H](NC(=O)[C@@H]2C[C@@H](O)CN2C(=O)[C@H](CCCCN)NC(=O)[C@@H](N)CCCCN)C(C)C)[C@@H](C)CC)[C@@H](C)CC)C(=O)N[C@@H](CC(N)=O)C(=O)N[C@@H](CCCNC(=N)N)C(=O)N[C@@H](CCN)C(=O)N[C@@H]([C@@H](C)O)C(=O)N[C@H](CCN)C(=O)N[C@@H](CCCCN)C(=O)N1)C(=O)O [Example 78, Lys-Lys-Hyp-Val-Hyp-Ile-Ile-Tyr-Cys-Asn-Arg-Dab-Thr-^DDab-Lys-Cys-Dab-Arg-Nle] (HELM PEPTIDE1{K.K.[Hyp].V.[Hyp].I.I.Y.C.N.R.[Dab].T.[NCC[C@@H](N[*:1])C(=O)[*:2]].K.C.[Dab].R.[Nle]}$PEPTIDE1,PEPTIDE1,9:R3-16:R3$$$V2.0) |  | 0 |
| 0.0625 | 0.125 |  | CC[C@H](C)[C@H](NC(=O)[C@@H]1C[C@@H](O)CN1C(=O)[C@@H](NC(=O)[C@@H]1C[C@@H](N)CN1C(=O)CNCCCCN)C(C)C)C(=O)N[C@H](C(=O)N[C@@H](Cc1ccc(O)cc1)C(=O)N[C@@H]1C(=O)N[C@@H](CC(N)=O)C(=O)N[C@@H](CCCNC(=N)N)C(=O)N[C@@H](CCN)C(=O)N[C@@H]([C@@H](C)O)C(=O)N[C@H](CCN)C(=O)N[C@@H](CCCCN)C(=O)N[C@H](C(=O)N[C@@H](CCN)C(=O)N[C@@H](CCCNC(=N)N)C(=O)N[C@@H](Cc2ccc(O)cc2)C(=O)O)CSSC1(C)C)[C@@H](C)O [Example 52, Nlys-Pro((4R)NH2)-Val-Hyp-Ile-Thr-Tyr-Pen-Asn-Arg-Dab-Thr-^DDab-Lys-Cys-Dab-Arg-Tyr] (H-[Nlys][Pro(4R-NH2)]V[Hyp]ITY[Pen]NR[Dab]T[dDab]KC[Dab]RY-OH; disulfide 8-15) |  | 0 |
| 0.0625 | 0.0625 |  | CC[C@H](C)[C@H](NC(=O)[C@@H]1C[C@@H](O)CN1C(=O)[C@@H](NC(=O)[C@@H]1C[C@@H](N)CN1C(=O)[C@H](CCCCN)NC(=O)[C@@H](N)CCCCN)C(C)C)C(=O)N[C@H](C(=O)N[C@@H](Cc1ccc(O)cc1)C(=O)N[C@@H]1C(=O)N[C@@H](CC(N)=O)C(=O)N[C@@H](CCCNC(=N)N)C(=O)N[C@@H](CCN)C(=O)N[C@@H]([C@@H](C)O)C(=O)N[C@H](CCN)C(=O)N[C@@H](CCCCN)C(=O)N[C@H](C(=O)N[C@@H](CCN)C(=O)N[C@@H](CCCNC(=N)N)C(=O)N[C@@H](Cc2ccc(O)cc2)C(=O)O)CSSC1(C)C)[C@@H](C)O [Example 127, Lys-Lys-Pro((4R)NH2)-Val-Hyp-Ile-Thr-Tyr-Pen-Asn-Arg-Dab-Thr-^DDab-Lys-Cys-Dab-Arg-Tyr] (HELM PEPTIDE1{K.K.[N[C@@H]1C[C@@H](C(=O)[*:2])N([*:1])C1].V.[Hyp].I.T.Y.[Pen].N.R.[Dab].T.[NCC[C@@H](N[*:1])C(=O)[*:2]].K.C.[Dab].R.Y}$PEPTIDE1,PEPTIDE1,9:R3-16:R3$$$V2.0; N-terminus and C-terminus assumed) |  | 0 |
| 0.0625 | 0.25 |  | CC[C@H](C)[C@H](NC(=O)[C@@H]1C[C@@H](O)CN1C(=O)[C@@H](NC(=O)[C@@H]1C[C@@H](N)CN1C(=O)CNCCCN)C(C)C)C(=O)N[C@H](C(=O)N[C@@H](Cc1ccc(O)cc1)C(=O)N[C@@H]1C(=O)N[C@@H](CC(N)=O)C(=O)N[C@@H](CCCNC(=N)N)C(=O)N[C@@H](CCN)C(=O)N[C@@H]([C@@H](C)O)C(=O)N[C@H](CCN)C(=O)N[C@@H](CCCCN)C(=O)N[C@H](C(=O)N[C@@H](CCN)C(=O)N[C@@H](CCCNC(=N)N)C(=O)N[C@@H](Cc2ccc(O)cc2)C(=O)O)CSSC1(C)C)[C@@H](C)O [Example 51, Norn-Pro((4R)NH2)-Val-Hyp-Ile-Thr-Tyr-Pen-Asn-Arg-Dab-Thr-^DDab-Lys-Cys-Dab-Arg-Tyr] (H-[Gly(N(CH2)3NH2)][Pro(4R-NH2)]V[Hyp]ITY[Pen]NR[Dab]T[dDab]KC[Dab]RY-OH; disulfide 8-15) |  | 0 |
